Test results: ChEMBL document CHEMBL1201862, “PubChem BioAssay data set” (2004)
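Each compound was tested at five concentrations against cells in 96-well plates for 48 hours. At the GI50, growth is halved.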 Active and inactive are the calls of the source. No stated cut-off is given here; in the data, active = GI50 up to about 1.1 µM and inactive = higher.

Assays:
Experiment in all cases: growth of human tumour cells (NCI), 48 h
HL-60 = system: HL-60
NCI-H460 = system: NCI-H460
SF-539 = system: SF-539
RPMI-8226 = system: RPMI-8226
SK-MEL-5 = system: SK-MEL-5
OVCAR-4 = system: OVCAR-4
HT-29 = system: HT-29
SN12C = system: SN12C
NCI-H522 = system: NCI-H522
UACC-62 = system: UACC-62
OVCAR-8 = system: OVCAR-8
SR = system: SR
SK-MEL-2 = system: SK-MEL-2
NCI-H226 = system: NCI-H226
UO-31 = system: UO-31
OVCAR-3 = system: OVCAR-3
A498 = system: A498

Measured: GI50

NC(=O)/C=C/C(=O)O
inactive: HL-60 > 5000 µM | NCI-H460 > 5000 µM | SF-539 > 5000 µM | RPMI-8226 > 5000 µM | SK-MEL-5 > 5000 µM | OVCAR-4 > 5000 µM | HT-29 > 5000 µM | SN12C > 5000 µM | NCI-H522 > 5000 µM | UACC-62 > 5000 µM | OVCAR-8 > 5000 µM | SR > 5000 µM | SK-MEL-2 > 5000 µM | NCI-H226 > 5000 µM | UO-31 > 5000 µM

O=[PH](O)c1cccnc1
inactive: HL-60 > 100 µM | NCI-H460 > 100 µM | SF-539 > 100 µM | RPMI-8226 > 100 µM | SK-MEL-5 > 100 µM | OVCAR-4 > 100 µM | HT-29 > 100 µM | SN12C > 100 µM | NCI-H522 > 100 µM | OVCAR-3 > 100 µM | UACC-62 > 100 µM | OVCAR-8 > 100 µM | SR > 100 µM | A498 > 100 µM | NCI-H226 > 100 µM | UO-31 > 100 µM

CN1CC[C@]2(C)c3c(O)cccc3CC3CCCC1C32C (stereo partly drawn)
inactive: HL-60 96.2 µM | NCI-H460 > 100 µM | SF-539 > 100 µM | RPMI-8226 > 100 µM | SK-MEL-5 > 100 µM | HT-29 > 100 µM | SN12C > 100 µM | NCI-H522 > 100 µM | OVCAR-3 > 100 µM | UACC-62 > 100 µM | OVCAR-8 > 100 µM | SR > 100 µM | SK-MEL-2 > 100 µM | A498 > 100 µM | NCI-H226 > 100 µM | UO-31 > 100 µM

CN(C)Cc1[nH]c2ccccc2c1C(=O)c1ccccc1
inactive: HL-60 86.9 µM | NCI-H460 > 100 µM | SF-539 > 100 µM | RPMI-8226 66.2 µM | SK-MEL-5 58.1 µM | OVCAR-4 > 100 µM | HT-29 > 100 µM | NCI-H522 > 100 µM | OVCAR-3 > 100 µM | UACC-62 > 100 µM | OVCAR-8 > 100 µM | SR 88.3 µM | SK-MEL-2 > 100 µM | NCI-H226 > 100 µM | UO-31 31.6 µM

COC1CC(Br)(C#N)C1 (stereo not drawn)
inactive: HL-60 > 100 µM | SF-539 > 100 µM | RPMI-8226 > 100 µM | SK-MEL-5 > 100 µM | OVCAR-4 > 100 µM | HT-29 > 100 µM | OVCAR-3 > 100 µM | UACC-62 > 100 µM | OVCAR-8 > 100 µM | SR > 100 µM | SK-MEL-2 > 100 µM | UO-31 > 100 µM

CC1=NN(C(=O)Cc2ccccc2)C(=O)/C1=C\c1cccc(O)c1
inactive: HL-60 > 100 µM | NCI-H460 > 100 µM | SF-539 > 100 µM | RPMI-8226 > 100 µM | SK-MEL-5 > 100 µM | OVCAR-4 > 100 µM | HT-29 > 100 µM | SN12C > 100 µM | NCI-H522 > 100 µM | OVCAR-3 > 100 µM | OVCAR-8 > 100 µM | SR > 100 µM | SK-MEL-2 > 100 µM | NCI-H226 > 100 µM | UO-31 > 100 µM

COc1cc(C(C)O)c[n+](CCc2c[nH]c3ccccc23)c1 (stereo not drawn)
inactive: HL-60 > 100 µM | NCI-H460 > 100 µM | SF-539 > 100 µM | RPMI-8226 > 100 µM | SK-MEL-5 > 100 µM | OVCAR-4 > 100 µM | HT-29 58.6 µM | SN12C > 100 µM | NCI-H522 83.9 µM | OVCAR-3 66.5 µM | UACC-62 > 100 µM | OVCAR-8 > 100 µM | SR > 100 µM | SK-MEL-2 > 100 µM | A498 > 100 µM | UO-31 > 100 µM

CC(=O)/C(=C\c1ccccc1O)C(=O)Nc1ccccc1C
inactive: HL-60 9.64 µM | NCI-H460 23.7 µM | SF-539 18.5 µM | RPMI-8226 15 µM | SK-MEL-5 13.5 µM | OVCAR-4 29.4 µM | HT-29 16.9 µM | SN12C > 10 µM | NCI-H522 > 10 µM | OVCAR-3 25.7 µM | UACC-62 20 µM | OVCAR-8 31.7 µM | SR 13.1 µM | SK-MEL-2 18.9 µM | NCI-H226 27.4 µM | UO-31 16 µM

COc1ccccc1-c1cc(O)c2cc3c(cc2n1)OCO3
inactive: HL-60 19.5 µM | NCI-H460 30.3 µM | SF-539 25.1 µM | RPMI-8226 38.5 µM | SK-MEL-5 5.19 µM | OVCAR-4 25.5 µM | HT-29 28.4 µM | SN12C 45.2 µM | UACC-62 31.6 µM | OVCAR-8 28.3 µM | SR 29.3 µM | SK-MEL-2 40.8 µM | A498 11.9 µM | UO-31 65.2 µM

Cc1nc2ccccc2c(=O)n1/N=C(\N=N\c1ccccc1)c1ccccc1Cl
inactive: HL-60 33.3 µM | NCI-H460 24 µM | SF-539 23.5 µM | RPMI-8226 20.4 µM | SK-MEL-5 38.3 µM | OVCAR-4 41 µM | HT-29 43.8 µM | SN12C 32.4 µM | NCI-H522 30.2 µM | OVCAR-3 27 µM | UACC-62 54.6 µM | OVCAR-8 59.7 µM | SK-MEL-2 20.7 µM | A498 20.6 µM | NCI-H226 14.5 µM | UO-31 29.2 µM

Cc1ccc(N2C(=O)C(Cl)=C(Cl)C2=O)cc1
inactive: NCI-H460 > 100 µM | SF-539 25.2 µM | RPMI-8226 18.8 µM | SK-MEL-5 40.9 µM | OVCAR-4 19.2 µM | HT-29 19.1 µM | SN12C 18.7 µM | NCI-H522 13 µM | OVCAR-3 16.9 µM | UACC-62 > 10 µM | SR 21.3 µM | SK-MEL-2 > 100 µM | A498 > 100 µM | NCI-H226 > 100 µM | UO-31 31.7 µM

NC1=NN(c2ccccc2)C(=O)C1C(=O)C(=O)NC1C2CC3CC(C2)CC1C3 (stereo not drawn)
inactive: HL-60 > 100 µM | NCI-H460 > 100 µM | SF-539 > 100 µM | SK-MEL-5 > 100 µM | OVCAR-4 > 100 µM | HT-29 > 100 µM | SN12C > 100 µM | OVCAR-3 > 100 µM | UACC-62 > 100 µM | OVCAR-8 > 100 µM | SR > 100 µM | SK-MEL-2 > 100 µM | NCI-H226 > 100 µM | UO-31 > 100 µM

COC(=O)c1c2c(cc3c1CC1(Cc4cc5c(c(C(C)=O)c4C1)CCC5)C3)CCC2 (stereo not drawn)
inactive: HL-60 11.8 µM | NCI-H460 36.9 µM | SF-539 34.6 µM | SK-MEL-5 31.8 µM | OVCAR-4 36.7 µM | HT-29 40.3 µM | SN12C 91.8 µM | NCI-H522 17 µM | OVCAR-3 > 100 µM | UACC-62 44.9 µM | OVCAR-8 54.5 µM | SR 43.7 µM | UO-31 38 µM
